Values quoted from earlier work, collected in PubChem BioAssay AID1259410 (Chemical Carcinogenesis Research Information System (CCRIS), 2018).

System: rodent tumor promotion studies, tumor incidence
Experiment: CCRIS tumor promotion studies
Settings: Species: RAT

In the case of `NC[C@@H]1O[C@H](O[C@H]2[C@@H](O)[C@H](O[C@@H]3[C@@H](O)[C@H](N)C[C@H](N)[C@H]3O[C@H]3O[C@H](CN)[C@@H](O)[C@H](O)[C@H]3N)O[C@@H]2CO)[C@H](N)[C@@H](O)[C@@H]1O`, the outcome (Carcinogen: AZOXYMETHANE, 25843-45-2, Doses [Carcinogen]: 8 MG/KG 1/WK FOR 8 WK, Doses [Promoter]: 0, 100, 200 PPM IN DRINKING WATER BEGINNING 2 WK PRIOR TO CARCINOGEN TREATMENT AND CONTINUING FOR DURATION OF STUDY (STU, Doses [Promoter]: 0, 100, 200 PPM IN DRINKING WATER BEGINNING 2 WK PRIOR TO CARCINOGEN TREATMENT AND CONTINUING FOR DURATION OF STUDY (STU, Route [Carcinogen]: SUBCUTANEOUS, Route [Promoter]: ORAL, Strain/Sex: F344/FEMALE) is listed as “colon: adenocarcinoma”.
In the case of `C[C@H](CCC(=O)O)[C@H]1CC[C@H]2[C@@H]3[C@H](O)C[C@@H]4C[C@H](O)CC[C@]4(C)[C@H]3C[C@H](O)[C@]12C`, the outcome (Carcinogen: AZOXYMETHANE, 25843-45-2, Doses [Carcinogen]: 15 MG/KG BW 1/WK FOR 2 WK, Doses [Promoter]: 0, 0.4% IN THE DIET FOR 28 WK BEGINNING 2 WK PRIOR TO CARCINOGEN TREATMENT (STUDY DURATION: 30 WK), Route [Carcinogen]: SUBCUTANEOUS, Route [Promoter]: ORAL, Strain/Sex: F344/MALE) is listed as “colon: tumor” and the outcome (Doses [Carcinogen]: IR, Route [Carcinogen]: RECTAL, Route [Promoter]: RECTAL, Strain/Sex: FEMALE) is listed as “colon”.
For `Cc1ccc2cc3c(ccc4ccccc43)c3c2c1CC3`, the outcome (Carcinogen: N-BIS(2-HYDROXYPROPYL)NITROSAMINE, 53609-64-6, N-ETHYL-N-HYDROXYETHYLNITROSAMINE, 13147-25-6, 3,2'-DIMETHYL-4-AMINOB, Carcinogen: N-BIS(2-HYDROXYPROPYL)NITROSAMINE, 53609-64-6, N-ETHYL-N-HYDROXYETHYLNITROSAMINE, 13147-25-6, 3,2'-DIMETHYL-4-AMINOB, Doses [Carcinogen]: 1000 MG/KG IP IN SALINE ON DAY 1 AND 4, 1500 MG/KG IG IN DISTILLED WATER ON DAY 8 AND 11, 75 MG/KG SC IN CORN OIL ON D, Doses [Carcinogen]: 1000 MG/KG IP IN SALINE ON DAY 1 AND 4, 1500 MG/KG IG IN DISTILLED WATER ON DAY 8 AND 11, 75 MG/KG SC IN CORN OIL ON D, Doses [Promoter]: 0, 0.02% IN DIET BEGINNING 1 WK POST LAST CARCINOGEN DOSE AND CONTINUING FOR 12 WK (STUDY DURATION: 16 WK), Route [Carcinogen]: INTRAPERITONEAL, GAVAGE, SUBCUTANEOUS, Route [Carcinogen]: INTRAPERITONEAL, GAVAGE, SUBCUTANEOUS, Route [Promoter]: ORAL, Strain/Sex: F344/MALE) is listed as “lung: adenoma or adenocarcinoma”.
